These are literature values, as cited in paper PMC10675484, “Characterization and Pharmacokinetic Assessment of a New Berberine Formulation with Enhanced Absorption In Vitro and in Human Volunteers” (Pharmaceutics, 2023).

Where two headings read alike, the source gives them in different places. Some results are limits rather than exact numbers.

Test in series [1]: not given
The source holds these as a separate data set.

On the set-up of series [2]: method as in PMID 26851175. Particulars: orally administered berberine.
Test in series [3]: not given
This is another data set of the same source.

The mark [4] stands for this setting: 500 mg berberine, within a 2 h period.
Where [5] appears, read: 20 study participants, oral 400 mg of berberine.
Where [6] appears, read: human volunteers, doses similar to the current study.

Consider `COc1ccc2cc3[n+](cc2c1OC)CCc1cc2c(cc1-3)OCO2` [BCl], for which the “Biopharmaceutical Classification System class” value is recorded as “class III” and the Solubility in water result is given as “approximately 1.3 mg/mL”.

For `COc1ccc2c(c1OC)CN1CCc3cc4c(cc3C1=C2)OCO4` [DHB, dihydroberberine], the “Glucose and insulin response” value in series [1] (study participants, during the study period) was “no significant changes”.

In the case of `COc1ccc2cc3[n+](cc2c1OC)CCc1cc2c(cc1-3)OCO2` [berberine, 2,3-methylenedioxy-9,10-dimethoxy-protoberberine], in series [1] (setting [4]), the “AUC (berberine)” value was 42.3 ± 17.6 ng·h/mL and the “Cmax (berberine)” value is 0.4 ± 0.17 ng/mL. Besides, the Cmax in series [1] (500 mg of berberine in 10 volunteers) was 0.07 nM. In series [1] (setting [5]), the “Mean AUC0–∞” value is roughly 9.2 ng·h/mL and the “Mean Cmax” value was “approx. 0.4 ng/mL”. Besides, the “Fraction of orally administered dose entering the systemic circulation” value in series [1] (human pharmacokinetic studies) is recorded as no more than 5%. In series [1] (setting [6]), the “AUC (total berberine)” value was 1.217 ± 0.129 ng·h/mL and the “Cmax (total berberine)” value was 0.31688 ± 0.0266 ng/mL. Further, in series [1] (oral administration in humans), the Elimination half-life is 2.94 ± 0.14 h. The “Fraction metabolized in the enterocytes” value in series [2] is on record as “approx. 43.5%”. Besides, the Absolute bioavailability in series [3] (oral administration in rats, ref 23, 24) is less than 1%. For the same compound, the Absolute bioavailability in series [3] (oral administration in rats, ref 24) is listed as 0.68%. Besides, in series [3] (oral administration in rats, ref 25), the “Absorption rate in the gut” value is recorded as “approx. 33.6%”. Moreover, the “AUC in the liver relative to plasma” value in series [3] (orally administered berberine 200 mg/kg) was 10 fold.

One may read the Cmax as the peak of the concentration-time curve.
